From publication PMC11094663 (Journal of ethnopharmacology, 2022)
Where two headings read alike, the source gives them in different places.

Legend:
[1] = target: CYP3A4 (Homo sapiens, UniProt P08684); test: Cytochrome P450; details: for CYP 3A4 Inhibition - IC50: 15 min incubation, 37 °C, mean ± SD of three experiments
[2] = target: T1, pregnane X receptor (PXR) (Homo sapiens, UniProt O75469); format: cell-based; details: for Fold induction in PXR activity: HepG2, 24 h, mean ± SD, NA = No activation
T1 sequence (O75469 1-434): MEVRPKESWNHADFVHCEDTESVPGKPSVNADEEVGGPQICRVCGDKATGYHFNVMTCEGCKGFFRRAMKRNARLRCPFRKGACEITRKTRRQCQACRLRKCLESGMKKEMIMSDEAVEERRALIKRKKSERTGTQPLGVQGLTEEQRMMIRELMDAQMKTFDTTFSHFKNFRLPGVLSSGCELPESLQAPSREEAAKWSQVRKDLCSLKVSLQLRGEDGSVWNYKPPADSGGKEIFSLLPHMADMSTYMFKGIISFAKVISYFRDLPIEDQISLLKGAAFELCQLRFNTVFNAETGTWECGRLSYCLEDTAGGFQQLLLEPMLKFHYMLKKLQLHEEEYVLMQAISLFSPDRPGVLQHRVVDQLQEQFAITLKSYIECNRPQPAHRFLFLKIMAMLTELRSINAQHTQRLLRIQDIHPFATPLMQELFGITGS

Sequence of CYP3A4 (P08684 whole entry): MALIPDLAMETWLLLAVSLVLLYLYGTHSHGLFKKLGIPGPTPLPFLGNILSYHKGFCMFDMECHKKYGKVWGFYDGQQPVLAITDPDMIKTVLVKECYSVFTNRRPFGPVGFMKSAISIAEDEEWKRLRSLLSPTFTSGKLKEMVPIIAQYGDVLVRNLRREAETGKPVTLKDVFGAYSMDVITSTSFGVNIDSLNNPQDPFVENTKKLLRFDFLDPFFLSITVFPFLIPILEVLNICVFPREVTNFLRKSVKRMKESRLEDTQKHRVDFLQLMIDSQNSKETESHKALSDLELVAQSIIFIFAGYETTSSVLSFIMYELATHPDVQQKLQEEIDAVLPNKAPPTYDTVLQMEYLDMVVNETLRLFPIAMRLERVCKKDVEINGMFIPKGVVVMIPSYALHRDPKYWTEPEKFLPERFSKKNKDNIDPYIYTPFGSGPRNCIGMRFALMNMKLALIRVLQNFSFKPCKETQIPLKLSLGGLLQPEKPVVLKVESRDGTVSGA

For `COC(=O)C1=C[C@H](O)C[C@H]2[C@]3(C)C[C@@H](c4ccoc4)OC(=O)[C@@H]3C[C@@H](O[C@@H]3O[C@H](CO)[C@@H](O)[C@H](O)[C@H]3O)[C@@]12C` [(2R,5R,6R,8R,9S, 10S,12S)-15,16-epoxy-2-hydroxy-6-O-(β-D-glucopyranosyl)-cleroda-3, 13(16),14-trien-17,12-olid-18-oicacidmethyl ester], the “CYP 3A4 Inhibition - IC50” value [1] was 29.00 ± 0.82 µg/mL, the “Fold induction in PXR activity” value ([2]; compounds at 12.5 μg/mL) was 0.93 ± 0.04 fold and the “Fold induction in PXR activity” value ([2]; compounds at 25 μg/mL) was 1.01 ± 0.13 fold. The “Fold induction in PXR activity” value ([2]; compounds at 50 μg/mL) was 1.39 ± 0.11 fold.

For `COC(=O)C1=C[C@H](O)C[C@H]2[C@]3(C)C[C@@H](c4ccoc4)OC(=O)[C@H]3C[C@H](O[C@@H]3O[C@H](CO)[C@@H](O)[C@H](O)[C@H]3O)[C@@]12C` [Borapetoside B, borapetoside B], the IC50 [1] was 181 µM.

`COC(=O)C1=CCC[C@H]2[C@]3(C)C[C@@H](c4ccoc4)OC(=O)[C@@H]3C[C@@H](O[C@@H]3O[C@H](CO)[C@@H](O)[C@H](O)[C@H]3O)[C@@]12C` [Borapetoside C, borapetoside C] showed an IC50 [1] of 69.9 µM.

`COC(=O)C1=CCCC2C3(C)CC(c4ccoc4)OC(=O)C3=CC(OC3OC(CO)C(O)C(O)C3O)C12C` (stereo not shown) [Borapetoside F, borapetoside F] was tested, and the “CYP 3A4 Inhibition - IC50” value [1] was 13.00 ± 0.82 µg/mL.

`C[C@@]12C[C@@H](c3ccoc3)OC(=O)[C@@H]1CC[C@]1(C)[C@H]2[C@@H]2C=C[C@@]1(O)C(=O)O2` [Columbin, columbin] was tested, and the “Fold induction in PXR activity” value ([2]; compounds at 25 μg/mL) was 2.89 ± 0.62 fold, the “Fold induction in PXR activity” value ([2]; compounds at 50 μg/mL) was 3.58 ± 0.61 fold and the “PXR activation (fold)” value ([2]; concentration not given) was 3 fold.

For `C=C(CC[C@@H](C)[C@H]1CC[C@@]2(C)[C@@H]3CC[C@H]4[C@H](C)[C@@H](O)CC[C@@]45C[C@@]35CC[C@]12C)C(C)C` [Cycloeucalenol, cycloeucalenol], the fold induction at 24 h, 12.5 μg/mL ([2]; human) was 1.42 ± 0.06, the fold induction at 24 h, 25 μg/mL ([2]; human) was 1.91 ± 0.23 and the fold induction at 24 h, 50 μg/mL ([2]; human) was 2.42 ± 0.3.

`COc1cc(/C=C/C(=O)NCCc2ccc(O)cc2)ccc1O` [N-trans-feruloyl tyramine] was tested, and the IC50 [1] was 8.62 µM, the fold induction at 24 h, 12.5 μg/mL ([2]; human) was 1.59 ± 0.07 and the fold induction at 24 h, 25 μg/mL ([2]; human) was 2.16 ± 0.27. It also gave a fold induction at 24 h, 50 μg/mL ([2]; human) of 2.29 ± 0.41.

In the case of `COc1cc2c(cc1OC)-c1cc3ccc(OC)c(OC)c3c[n+]1CC2` [Palmatine, palmatine], the “CYP 3A4 Inhibition - IC50” value [1] is reported as 34.00 ± 0.00 µg/mL, the “Fold induction in PXR activity” value ([2]; compounds at 12.5 μg/mL) is reported as 1.08 ± 0.00 fold and the “Fold induction in PXR activity” value ([2]; compounds at 25 μg/mL) is reported as 1.30 ± 0.00 fold. For the same compound, the “Fold induction in PXR activity” value ([2]; compounds at 50 μg/mL) was 1.43 ± 0.00 fold.

`CO[C@H]1/C=C/O[C@@]2(C)Oc3c(C)c(O)c4c(O)c(c(/C=N/N5CCN(C)CC5)c(O)c4c3C2=O)NC(=O)/C(C)=C\C=C\[C@H](C)[C@H](O)[C@@H](C)[C@@H](O)[C@@H](C)[C@H](OC(C)=O)[C@@H]1C` [Rifampicin, reference compound] was tested, and the fold induction at 24 h, 5 µM ([2]; human) was 3.24 ± 0.15 and the fold induction at 24 h, 10 µM ([2]; human) was 3.25 ± 0.08.

For `COc1cc(/C=C/CO)cc(OC)c1O[C@@H]1O[C@H](CO)[C@@H](O)[C@H](O[C@@H]2OC[C@](O)(CO)[C@H]2O)[C@H]1O` [Tinosinen, tinosinen], the “CYP 3A4 Inhibition - IC50” value [1] was over 100 µg/mL, the “Fold induction in PXR activity” value ([2]; compounds at 12.5 μg/mL) was 1.48 ± 0.06 fold and the “Fold induction in PXR activity” value ([2]; compounds at 25 μg/mL) was 1.67 ± 0.02 fold. The “Fold induction in PXR activity” value ([2]; compounds at 50 μg/mL) was 1.42 ± 0.06 fold.

In the case of `CC(=O)O[C@@H]1[C@@H]2[C@H](CC[C@@]3(O)C(=O)O[C@H](c4ccoc4)C[C@@]23C)[C@H](O[C@@H]2O[C@H](CO)[C@@H](O)[C@H](O)[C@H]2O)C[C@@H]1O` [Tinosineside A, tinosineside A], the “CYP 3A4 Inhibition - IC50” value [1] is reported as 45.00 ± 5.72 µg/mL, the “Fold induction in PXR activity” value ([2]; compounds at 12.5 μg/mL) is reported as 1.42 ± 0.06 fold and the “Fold induction in PXR activity” value ([2]; compounds at 25 μg/mL) is reported as 1.50 ± 0.00 fold. For the same compound, the “Fold induction in PXR activity” value ([2]; compounds at 50 μg/mL) was 1.53 ± 0.11 fold.

For baenzigeride A, the “Fold induction in PXR activity” value ([2]; compounds at 12.5 μg/mL) was 1.18 ± 0.09 fold, the “Fold induction in PXR activity” value ([2]; compounds at 25 μg/mL) was 1.54 ± 0.16 fold and the “Fold induction in PXR activity” value ([2]; compounds at 50 μg/mL) was 1.96 ± 0.16 fold.

cordifoliside C was tested, and the “Fold induction in PXR activity” value ([2]; compounds at 12.5 μg/mL) was 1.22 ± 0.06 fold, the “Fold induction in PXR activity” value ([2]; compounds at 25 μg/mL) was 1.47 ± 0.03 fold and the “Fold induction in PXR activity” value ([2]; compounds at 50 μg/mL) was 1.95 ± 0.04 fold.

tinosposinoside was tested, and the “Fold induction in PXR activity” value ([2]; compounds at 12.5 μg/mL) was 1.30 ± 0.08 fold, the “Fold induction in PXR activity” value ([2]; compounds at 25 μg/mL) was 1.55 ± 0.08 fold and the “Fold induction in PXR activity” value ([2]; compounds at 50 μg/mL) was 1.52 ± 0.15 fold.
